Assays:
Type in all cases: cell-based
Bord bronchiseptica BO8 = experiment: MIC, veterinary bacteria; conditions: veterinary bacteria (Table 2)
Past Haemolytica PA5 = experiment: MIC, veterinary bacteria; conditions: veterinary bacteria (Table 2)
Strep agalactiae SPA1 = experiment: MIC, veterinary bacteria; conditions: veterinary bacteria (Table 2)
M. pneumoniae ATCC 15492 = experiment: MIC, anti-mycoplasmal, Friis broth solidified with 0.9% agarose; conditions: inoculum 10^3 to 10^5 C.F.U., 6 days incubation at 37°C
Past multocida PA1 = experiment: MIC, veterinary bacteria; conditions: veterinary bacteria (Table 2)
M. suipneumoniae LABER = experiment: MIC, anti-mycoplasmal, Friis broth solidified with 0.9% agarose; conditions: inoculum 10^3 to 10^5 C.F.U., 6 days incubation at 37°C
[1] = tested on: M. suipneumoniae ATCC 25095; experiment: as above; conditions: inoculum 10^3 to 10^5 C.F.U., 6 days incubation at 37°C
S dublin S7 = experiment: MIC, veterinary bacteria; conditions: veterinary bacteria (Table 2)
Staph aureus Oxford [2] = experiment: MIC, veterinary bacteria; conditions: veterinary bacteria (Table 2)
M. suipneumoniae JF 435 = experiment: MIC, anti-mycoplasmal, Friis broth solidified with 0.9% agarose; conditions: inoculum 10^3 to 10^5 C.F.U., 6 days incubation at 37°C
[3] = tested on: Haemophilus influenzae Wy21; experiment: MIC, human bacteria, serial dilution in nutrient agar; conditions: nutrient agar containing 5% 'chocolated' horse blood
Past multocida PA2 = experiment: MIC, veterinary bacteria; conditions: veterinary bacteria (Table 2)
E coli ESS = experiment: MIC, human bacteria, serial dilution in nutrient agar; conditions: nutrient agar containing 5% 'chocolated' horse blood
Staph aureus W2827 = experiment: as above; conditions: nutrient agar containing 5% 'chocolated' horse blood
Ps aeruginosa 10662 = experiment: as above; conditions: nutrient agar containing 5% 'chocolated' horse blood
E coli NCTC 10418 [4] = experiment: MIC, veterinary bacteria; conditions: veterinary bacteria (Table 2)
[5] = tested on: Neisseria catarrhalis 1502; experiment: MIC, human bacteria, serial dilution in nutrient agar; conditions: Neisseria catarrhalis 1502 (footnote a); nutrient agar containing 5% 'chocolated' horse blood
Strep uberis SPU1 = experiment: MIC, veterinary bacteria; conditions: veterinary bacteria (Table 2)
Strep pneumoniae CN33 = experiment: MIC, human bacteria, serial dilution in nutrient agar; conditions: nutrient agar containing 5% 'chocolated' horse blood
Strep pyogenes B 2788 = experiment: as above; conditions: nutrient agar containing 5% 'chocolated' horse blood
Bacillus subtilis 6633 = experiment: as above; conditions: nutrient agar containing 5% 'chocolated' horse blood
Staph aureus Russell = experiment: as above; conditions: nutrient agar containing 5% 'chocolated' horse blood
M. suipneumoniae UCD 1 = experiment: MIC, anti-mycoplasmal, Friis broth solidified with 0.9% agarose; conditions: inoculum 10^3 to 10^5 C.F.U., 6 days incubation at 37°C
Bord bronchisptica BO9 = experiment: MIC, veterinary bacteria; conditions: veterinary bacteria (Table 2)
M. dispar NCTC 10125 = experiment: MIC, anti-mycoplasmal, Friis broth solidified with 0.9% agarose; conditions: inoculum 10^3 to 10^5 C.F.U., 6 days incubation at 37°C
M. hyorhinis ATCC 25021 = experiment: as above; conditions: inoculum 10^3 to 10^5 C.F.U., 6 days incubation at 37°C
M. gallisepticum S6 = experiment: as above; conditions: inoculum 10^3 to 10^5 C.F.U., 6 days incubation at 37°C
Strep pyogenes A 64/848 = experiment: MIC, human bacteria, serial dilution in nutrient agar; conditions: nutrient agar containing 5% 'chocolated' horse blood
[6] = tested on: Staph aureus 152 (pen sens); experiment: MIC, veterinary bacteria; conditions: veterinary bacteria (Table 2)
P mirabilis 889 = experiment: MIC, human bacteria, serial dilution in nutrient agar; conditions: nutrient agar containing 5% 'chocolated' horse blood
[7] = tested on: Erysipelothrix rhusiopathiae NCTC 8163; experiment: MIC, veterinary bacteria; conditions: veterinary bacteria (Table 2)
M. suipneumoniae HK(2) = experiment: MIC, anti-mycoplasmal, Friis broth solidified with 0.9% agarose; conditions: inoculum 10^3 to 10^5 C.F.U., 6 days incubation at 37°C
Staph aureus Oxford [8] = experiment: MIC, human bacteria, serial dilution in nutrient agar; conditions: nutrient agar containing 5% 'chocolated' horse blood
[9] = tested on: M. suipneumoniae J2206/183b; experiment: MIC, anti-mycoplasmal, Friis broth solidified with 0.9% agarose; conditions: inoculum 10^3 to 10^5 C.F.U., 6 days incubation at 37°C
M. bovis NCTC 10131 = experiment: microbe, parasite or virus in culture; conditions: M. bovis NCTC 10131; inoculum 10^3 to 10^5 C.F.U., 6 days incubation at 37°C
[10] = tested on: Staph aureus B4 (pen resis); experiment: MIC, veterinary bacteria; conditions: veterinary bacteria (Table 2)
Strep dysgalaciae SPD1 = experiment: MIC, veterinary bacteria; conditions: veterinary bacteria (Table 2)
M. suipneumoniae NB12 = experiment: MIC, anti-mycoplasmal, Friis broth solidified with 0.9% agarose; conditions: inoculum 10^3 to 10^5 C.F.U., 6 days incubation at 37°C
[11] = tested on: Corynebacterium pyogenes CY1; experiment: MIC, veterinary bacteria; conditions: veterinary bacteria (Table 2)
M. suipneumoniae MS 16 = experiment: MIC, anti-mycoplasmal, Friis broth solidified with 0.9% agarose; conditions: inoculum 10^3 to 10^5 C.F.U., 6 days incubation at 37°C
E coli E1 = experiment: MIC, veterinary bacteria; conditions: veterinary bacteria (Table 2)
[12] = tested on: M. hyosynoviae ATCC 25591; experiment: MIC, anti-mycoplasmal, Friis broth solidified with 0.9% agarose; conditions: inoculum 10^3 to 10^5 C.F.U., 6 days incubation at 37°C
S typhimurium S18 = experiment: MIC, veterinary bacteria; conditions: veterinary bacteria (Table 2)
Strep faecalis I = experiment: MIC, human bacteria, serial dilution in nutrient agar; conditions: nutrient agar containing 5% 'chocolated' horse blood
K aerogenes A = experiment: as above; conditions: nutrient agar containing 5% 'chocolated' horse blood
[13] = tested on: M. suipneumoniae NCTC 10110; experiment: MIC, anti-mycoplasmal, Friis broth solidified with 0.9% agarose; conditions: inoculum 10^3 to 10^5 C.F.U., 6 days incubation at 37°C
[14] = tested on: M. bovigenitalium ATCC 14173; experiment: as above; conditions: inoculum 10^3 to 10^5 C.F.U., 6 days incubation at 37°C
M. suipneumoniae TAM 6N = experiment: as above; conditions: inoculum 10^3 to 10^5 C.F.U., 6 days incubation at 37°C
[15] = tested on: M. suipneumoniae PW/C/210; experiment: as above; conditions: inoculum 10^3 to 10^5 C.F.U., 6 days incubation at 37°C
Strep pyogenes C 2761 = experiment: MIC, human bacteria, serial dilution in nutrient agar; conditions: nutrient agar containing 5% 'chocolated' horse blood
M. hyorhinis ATCC 23234 = experiment: MIC, anti-mycoplasmal, Friis broth solidified with 0.9% agarose; conditions: inoculum 10^3 to 10^5 C.F.U., 6 days incubation at 37°C
M. suipneumoniae Str. 11 = experiment: as above; conditions: inoculum 10^3 to 10^5 C.F.U., 6 days incubation at 37°C
[16] = tested on: Pasteurella multocida 1633; experiment: MIC, human bacteria, serial dilution in nutrient agar; conditions: nutrient agar containing 5% 'chocolated' horse blood
[17] = tested on: Strep suis (group D) SPS11; experiment: MIC, veterinary bacteria; conditions: veterinary bacteria (Table 2)
E coli NCTC 10418 [18] = experiment: MIC, human bacteria, serial dilution in nutrient agar; conditions: nutrient agar containing 5% 'chocolated' horse blood
[19] = tested on: Haemophilus influenzae Q1; experiment: as above; conditions: nutrient agar containing 5% 'chocolated' horse blood

Substance: 5-Acetylpentyl monate A [Example 7]
- MIC (Bord bronchiseptica BO8): 40 µg/mL
- MIC (Past Haemolytica PA5): 5 µg/mL
- MIC (Strep agalactiae SPA1): .625 µg/mL
- in vitro MIC (M. pneumoniae ATCC 15492): 0.5 µg/mL
- MIC (Past multocida PA1): .625 µg/mL
- in vitro MIC (M. suipneumoniae LABER): 0.25 µg/mL
- in vitro MIC [1]: 0.25 µg/mL
- MIC (S dublin S7): >80 µg/mL
- MIC (Staph aureus Oxford [2]): .625 µg/mL
- in vitro MIC (M. suipneumoniae JF 435): 0.25 µg/mL
- MIC [3]: 0.1 µm/ml
- MIC (Past multocida PA2): .312 µg/mL
- MIC (E coli ESS): 0.5 µm/ml
- MIC (Staph aureus W2827): 2.5 µm/ml
- MIC (Ps aeruginosa 10662): >100 µm/ml
- MIC (E coli NCTC 10418 [4]): 80 µg/mL
- MIC [5]: ^a0.5 µm/ml
- MIC (Strep uberis SPU1): .156 µg/mL
- MIC (Strep pneumoniae CN33): 0.5 µm/ml
- MIC (Strep pyogenes B 2788): 2.5 µm/ml
- MIC (Bacillus subtilis 6633): 0.5 µm/ml
- MIC (Staph aureus Russell): 1.0 µm/ml
- in vitro MIC (M. suipneumoniae UCD 1): 0.5 µg/mL
- MIC (Bord bronchisptica BO9): 5 µg/mL
- in vitro MIC (M. dispar NCTC 10125): 0.05 µg/mL
- in vitro MIC (M. hyorhinis ATCC 25021): 0.1 µg/mL
- in vitro MIC (M. gallisepticum S6): 2.5 µg/mL
- MIC (Strep pyogenes A 64/848): 0.5 µm/ml
- MIC [6]: .625 µg/mL
- MIC (P mirabilis 889): >100 µm/ml
- MIC [7]: 40 µg/mL
- in vitro MIC (M. suipneumoniae HK(2)): 0.5 µg/mL
- MIC (Staph aureus Oxford [8]): 1.0 µm/ml
- in vitro MIC [9]: 0.5 µg/mL
- in vitro MIC (M. bovis NCTC 10131): <0.01 µg/mL
- MIC [10]: .625 µg/mL
- MIC (Strep dysgalaciae SPD1): .312 µg/mL
- in vitro MIC (M. suipneumoniae NB12): 0.25 µg/mL
- MIC [11]: >80 µg/mL
- in vitro MIC (M. suipneumoniae MS 16): 0.25 µg/mL
- MIC (E coli E1): >80 µg/mL
- in vitro MIC [12]: 0.025 µg/mL
- MIC (S typhimurium S18): >80 µg/mL
- MIC (Strep faecalis I): >100 µm/ml
- MIC (K aerogenes A): >100 µm/ml
- in vitro MIC [13]: 0.5 µg/mL
- in vitro MIC [14]: 0.025 µg/mL
- in vitro MIC (M. suipneumoniae TAM 6N): 0.5 µg/mL
- in vitro MIC [15]: 0.25 µg/mL
- MIC (Strep pyogenes C 2761): 2.5 µm/ml
- in vitro MIC (M. hyorhinis ATCC 23234): 0.1 µg/mL
- in vitro MIC (M. suipneumoniae Str. 11): 0.25 µg/mL
- MIC [16]: 0.5 µm/ml
- MIC [17]: 5 µg/mL
- MIC (E coli NCTC 10418 [18]): >100 µm/ml
- MIC [19]: 0.2 µm/ml

— EP0025288A1, “Derivatives of monic acid, processes for their preparation, compositions containing them and their preparation” (priority 1979, dated 1981)
